Experiments:
[1] = target: Metabotropic glutamate receptor 5 (Homo sapiens, UniProt P41594); assay: Activity at human mGluR5 assessed as effect on glutamate-induced calcium ion mobilization by FLIPR; assay type: functional
[2] = Intrinsic clearance in rat liver microsomes; assay type: ADME, Microsome
[3] = target: Metabotropic glutamate receptor 1 (Homo sapiens, UniProt Q13255); assay: Activity at human mGluR1 assessed as effect on glutamate-induced calcium ion mobilization by FLIPR; assay type: functional
Chain of Metabotropic glutamate receptor 1 (Q13255 whole entry): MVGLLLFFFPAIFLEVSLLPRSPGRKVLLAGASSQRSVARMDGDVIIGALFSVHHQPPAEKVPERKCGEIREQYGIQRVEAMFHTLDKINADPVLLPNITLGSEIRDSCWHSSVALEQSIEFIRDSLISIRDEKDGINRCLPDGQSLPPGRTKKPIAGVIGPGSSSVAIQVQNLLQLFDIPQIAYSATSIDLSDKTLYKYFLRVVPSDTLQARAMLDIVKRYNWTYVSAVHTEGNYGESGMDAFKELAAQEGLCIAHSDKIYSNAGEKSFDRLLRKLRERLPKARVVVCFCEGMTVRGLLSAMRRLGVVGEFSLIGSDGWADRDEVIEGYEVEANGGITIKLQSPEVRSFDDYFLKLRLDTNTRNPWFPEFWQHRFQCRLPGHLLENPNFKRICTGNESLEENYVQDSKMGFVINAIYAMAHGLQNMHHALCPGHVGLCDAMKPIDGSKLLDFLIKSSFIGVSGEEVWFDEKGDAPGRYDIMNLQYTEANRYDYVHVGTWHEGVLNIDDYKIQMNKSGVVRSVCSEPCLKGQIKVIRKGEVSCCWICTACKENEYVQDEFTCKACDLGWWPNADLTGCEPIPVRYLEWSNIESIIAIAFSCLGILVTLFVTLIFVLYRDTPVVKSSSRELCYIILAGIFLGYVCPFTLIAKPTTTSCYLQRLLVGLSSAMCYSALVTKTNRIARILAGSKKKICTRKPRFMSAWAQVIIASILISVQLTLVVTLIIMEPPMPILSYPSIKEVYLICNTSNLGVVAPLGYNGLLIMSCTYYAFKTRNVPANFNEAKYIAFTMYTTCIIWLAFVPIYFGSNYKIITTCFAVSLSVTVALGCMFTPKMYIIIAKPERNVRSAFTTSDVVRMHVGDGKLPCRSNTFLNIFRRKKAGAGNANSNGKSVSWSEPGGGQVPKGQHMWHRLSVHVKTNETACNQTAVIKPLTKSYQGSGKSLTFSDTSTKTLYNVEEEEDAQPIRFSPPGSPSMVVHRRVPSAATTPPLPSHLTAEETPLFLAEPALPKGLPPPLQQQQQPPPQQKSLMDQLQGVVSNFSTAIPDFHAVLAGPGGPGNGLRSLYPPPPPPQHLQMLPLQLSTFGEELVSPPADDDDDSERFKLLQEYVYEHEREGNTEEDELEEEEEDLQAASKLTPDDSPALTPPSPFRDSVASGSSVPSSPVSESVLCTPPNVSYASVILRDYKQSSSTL

Chain of Metabotropic glutamate receptor 5 (P41594 whole entry): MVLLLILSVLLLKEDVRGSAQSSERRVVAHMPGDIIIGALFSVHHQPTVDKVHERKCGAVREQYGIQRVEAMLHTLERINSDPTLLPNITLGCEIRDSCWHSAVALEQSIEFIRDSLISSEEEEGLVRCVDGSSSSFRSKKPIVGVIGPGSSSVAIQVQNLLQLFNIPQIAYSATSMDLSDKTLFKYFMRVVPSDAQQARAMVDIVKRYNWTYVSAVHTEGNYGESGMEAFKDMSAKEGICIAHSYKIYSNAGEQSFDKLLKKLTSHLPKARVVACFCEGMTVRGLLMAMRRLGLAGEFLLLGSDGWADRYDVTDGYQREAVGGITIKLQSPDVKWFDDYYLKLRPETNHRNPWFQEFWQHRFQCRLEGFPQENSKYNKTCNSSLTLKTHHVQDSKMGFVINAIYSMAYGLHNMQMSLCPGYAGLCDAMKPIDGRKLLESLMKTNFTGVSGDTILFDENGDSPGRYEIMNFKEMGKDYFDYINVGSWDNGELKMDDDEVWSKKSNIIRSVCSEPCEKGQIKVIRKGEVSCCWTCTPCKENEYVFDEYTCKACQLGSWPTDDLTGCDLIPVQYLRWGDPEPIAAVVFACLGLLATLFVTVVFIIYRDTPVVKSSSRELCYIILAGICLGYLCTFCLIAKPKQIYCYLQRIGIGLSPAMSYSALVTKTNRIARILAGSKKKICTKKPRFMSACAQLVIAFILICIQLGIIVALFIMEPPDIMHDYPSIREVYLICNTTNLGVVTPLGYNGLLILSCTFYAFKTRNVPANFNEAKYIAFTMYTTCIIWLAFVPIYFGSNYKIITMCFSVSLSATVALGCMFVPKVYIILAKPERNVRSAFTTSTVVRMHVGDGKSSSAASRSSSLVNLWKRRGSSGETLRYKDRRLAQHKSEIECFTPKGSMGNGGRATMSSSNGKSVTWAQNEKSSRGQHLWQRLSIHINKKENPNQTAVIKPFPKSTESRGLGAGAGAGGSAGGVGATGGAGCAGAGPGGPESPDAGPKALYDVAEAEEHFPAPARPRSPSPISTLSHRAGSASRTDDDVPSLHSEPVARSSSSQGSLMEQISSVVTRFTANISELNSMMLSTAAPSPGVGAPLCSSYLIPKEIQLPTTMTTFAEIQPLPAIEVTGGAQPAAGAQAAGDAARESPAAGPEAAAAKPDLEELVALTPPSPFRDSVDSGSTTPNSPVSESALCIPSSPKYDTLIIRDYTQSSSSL

IC50 [1] [nM] | microsomal CLint [2] [µL/min/mg] | IC50 [3] [nM] | SMILES
> 3000 |  |  | Cc1cccc(C#CCOc2ccccc2Cl)n1
115 |  |  | Cc1ccc(OCC#Cc2cccc(C)n2)cc1
397 |  | > 10000 | COc1cccc(OCC#Cc2cccc(C)n2)c1
> 10000 |  |  | COc1cccc(OCC#Cc2nccs2)c1
83 |  |  | Cc1cccc(C#CCOc2ccc(C(C)C)cc2)n1
455 |  |  | COc1ccc(OCC#Cc2cccc(C)n2)cc1
> 10000 |  |  | COc1cccc(OCC#Cc2ncccc2C)c1
> 10000 |  |  | Cc1cccc(C#CCOc2ccccc2)n1
102 |  |  | Cc1cccc(C#CCOc2ccc(Cl)cc2)n1
2490 |  |  | Cc1ccc(OCC#Cc2cccc(C)n2)cn1
36 |  |  | Cc1cccc(C#CCOc2ccc3c(c2)CCCC3)n1
> 10000 |  |  | COc1cccc(OCC#Cc2cnccn2)c1

More lines, now with the values behind:

SMILES | IC50 [1] [nM] | microsomal CLint [2] [µL/min/mg] | IC50 [3] [nM]
COc1cccc(OCC#Cc2ccncc2)c1 | > 10000 |  | 
Cc1cccc(C#CCOc2cc(=O)[nH]c3ccccc23)n1 | 825 |  | 
COc1cccc(OCC#Cc2cc(C)ccn2)c1 | > 10000 |  | 
Cc1cccc(C#CCOc2cccc([N+](=O)[O-])c2)n1 | 416 |  | 
Cc1cccc(C#CCOc2ccc(Cl)c(Cl)c2)n1 | 15 | 278 | 
COc1cccc(OCC#Cc2cccc(OC)n2)c1 | > 10000 |  | 
Cc1cccc(C#CCOc2cccnc2)n1 | > 10000 |  | 
COc1cccc(OCC#Cc2ccc(C)cn2)c1 | 7930 |  | 
CCC(O)(CO)c1cc(F)cc(OCC#Cc2ccccn2)c1 (stereo not drawn) | 300 |  | ≥ 10000
COC(=O)c1cncc(OCC#Cc2cccc(C)n2)c1 | 1490 |  | 
COc1cccc(OCC#Cc2ccccn2)c1 | 1540 |  | > 10000
Cc1cccc(C#CCOc2cccc(Cl)c2)n1 | 101 |  | 
